Experimental data reported in PMC11808136, “Screening and identification of host signaling pathways for alleviating influenza-induced production of pro-inflammatory cytokines, IP-10, IL-8, and MCP-1, using a U937 cell-based influenza model” (Frontiers in Microbiology, 2025).
Read-outs that look alike come from different tables or passages of the source.

Key:
[1] = target: p38 (Homo sapiens, UniProt Q16539); test: Cell-free kinase activity assay, p38; type: biochemical; conditions: p38 kinases in vitro
p38, sequence (Q16539 whole entry): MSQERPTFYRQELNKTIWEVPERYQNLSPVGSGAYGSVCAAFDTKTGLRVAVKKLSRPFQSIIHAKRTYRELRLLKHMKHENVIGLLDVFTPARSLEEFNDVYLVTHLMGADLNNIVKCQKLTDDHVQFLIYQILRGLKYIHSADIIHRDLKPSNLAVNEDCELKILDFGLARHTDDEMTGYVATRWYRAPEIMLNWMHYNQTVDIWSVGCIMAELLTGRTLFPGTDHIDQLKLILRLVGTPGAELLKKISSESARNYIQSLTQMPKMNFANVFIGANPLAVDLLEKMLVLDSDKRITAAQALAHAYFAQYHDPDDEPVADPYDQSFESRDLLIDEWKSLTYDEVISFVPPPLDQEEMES

[2] = system: MCP-1 production in influenza virus-infected U937 cells (H1N1); test: cells; type: cell-based
[3] = system: IP-10 production in influenza virus-infected U937 cells (H1N1); test: cells; type: cell-based
[4] = in vitro; conditions: human
[5] = system: IL-8 production in influenza virus-infected U937 cells (H1N1); test: cells; type: cell-based, Human; conditions: for EC50: read-out: EC50 IL-8
[6] = system: influenza virus infection; parameters: method as in Florence et al., 2018; Chen et al., 2019; conditions: without compromising viral titers; ref Florence et al., 2018; Chen et al., 2019; cited from earlier work
[7] = system: phosphorylation of p38 (p-p38); test: Western blot of phosphorylated p38 in influenza-infected U937 cells; type: cell-based, Human
Description: (§1) Figure 6 TKIs repress cytokine production by suppressing the p38 pathway. […] Cells were lysed 24 h post-infection, and the levels of phosphorylated p38 and ERK (p-p38 and p-ERK) and total p38 and ERK were assessed by western blot. A quantification of phosphorylated p38 levels for each drug treatment was included in the right panel of each figure.
(§2) Cells were homogenized in RIPA lysis buffer containing a 1% protease inhibitor cocktail (Roche) to extract total protein. Equal amounts of protein homogenates were separated by SDS-PAGE (Bio-Rad) and transferred onto polyvinylidene difluoride membranes (pore size […]; Bio-Rad). The membranes were then blotted with monoclonal antibodies against GAPDH (1:1000, ZSGB-BIO), p38, phosphor-p38, ERK, phospho-ERK, STAT1, phosphor-STAT1 (1:1000; Cell Signaling Technology), STAT3, and phosphor-STAT3 (1:1000; Cell Signaling Technology), respectively. Protein levels were detected with horseradish peroxidase-tagged secondary antibodies and enhanced chemiluminescence western blot reagents (Advansta), followed by visualization using an enhanced chemiluminescence system (AlphaEase FluorChem System, Alpha Innotech Corp.). Bands were quantified using ImageJ (Ver. 1.46; NIH, Bethesda, MD).

[8] = system: STAT1 phosphorylation (p-STAT1); type: cell-based, Human
[9] = system: ERK phosphorylation (p-ERK); test: Western blot of phosphorylated ERK in influenza-infected U937 cells; type: cell-based, Human
Description: Figure 5 Raf/MEK/ERK and p38 signal pathways are involved in the regulation of cytokines in U937 cells. (A–C) Determination of inhibition rates on IL-8, IP-10, and MCP-1 by each compound in the MAPK group and the distribution of targets between subgroups. U937 cells were infected with influenza A/PuertoRico/8/1934 virus (MOI = 0.1) in the presence of 10 μM of each inhibitor and then incubated at 37°C for 48 h. The distribution of the targets of all the inhibitors in the MAPK group was then analyzed and categorized into subgroups. […] The supernatants were harvested 48 h post-infection, and the levels of IL-8, MCP-1, and IP-10 were measured by AlphaLISA. (E) The cells were treated as in (C) except being lysed 24 h post-infection, and the levels of phosphorylated STAT1, p38, ERK (p-STAT1, p-p38, p-ERK), total STAT1, p38, ERK, and viral protein HA were assessed by western blot. (F) A quantitative analysis of the relative levels of the phosphorylated STAT1, p38, ERK (p-STAT1, p-p38, p-ERK) in (E). The data are representative of at least three independent experiments. n.s. no significance; *p < 0.05; **p < 0.01; ***p < 0.001.
as §1
as §2, with “The membranes were then blotted with monoclonal antibodies against GAPDH (1:1000, ZSGB-BIO), p38, phosphor-p38, ERK, phospho-ERK, STAT1, phosphor-STAT1 (1:1000; Cell Signaling Technology), STAT3, and phosphor-STAT3 (1:1000; Cell Signaling Technology), respectively.” left out

[10] = target: T1, JAK2 (Homo sapiens, UniProt O60674); test: Cell-free kinase activity assay, JAK2; type: biochemical
T1 construct: purchased KinaseProfiler (Eurofin, Brussels, Belgium)
T1 sequence (O60674 whole entry): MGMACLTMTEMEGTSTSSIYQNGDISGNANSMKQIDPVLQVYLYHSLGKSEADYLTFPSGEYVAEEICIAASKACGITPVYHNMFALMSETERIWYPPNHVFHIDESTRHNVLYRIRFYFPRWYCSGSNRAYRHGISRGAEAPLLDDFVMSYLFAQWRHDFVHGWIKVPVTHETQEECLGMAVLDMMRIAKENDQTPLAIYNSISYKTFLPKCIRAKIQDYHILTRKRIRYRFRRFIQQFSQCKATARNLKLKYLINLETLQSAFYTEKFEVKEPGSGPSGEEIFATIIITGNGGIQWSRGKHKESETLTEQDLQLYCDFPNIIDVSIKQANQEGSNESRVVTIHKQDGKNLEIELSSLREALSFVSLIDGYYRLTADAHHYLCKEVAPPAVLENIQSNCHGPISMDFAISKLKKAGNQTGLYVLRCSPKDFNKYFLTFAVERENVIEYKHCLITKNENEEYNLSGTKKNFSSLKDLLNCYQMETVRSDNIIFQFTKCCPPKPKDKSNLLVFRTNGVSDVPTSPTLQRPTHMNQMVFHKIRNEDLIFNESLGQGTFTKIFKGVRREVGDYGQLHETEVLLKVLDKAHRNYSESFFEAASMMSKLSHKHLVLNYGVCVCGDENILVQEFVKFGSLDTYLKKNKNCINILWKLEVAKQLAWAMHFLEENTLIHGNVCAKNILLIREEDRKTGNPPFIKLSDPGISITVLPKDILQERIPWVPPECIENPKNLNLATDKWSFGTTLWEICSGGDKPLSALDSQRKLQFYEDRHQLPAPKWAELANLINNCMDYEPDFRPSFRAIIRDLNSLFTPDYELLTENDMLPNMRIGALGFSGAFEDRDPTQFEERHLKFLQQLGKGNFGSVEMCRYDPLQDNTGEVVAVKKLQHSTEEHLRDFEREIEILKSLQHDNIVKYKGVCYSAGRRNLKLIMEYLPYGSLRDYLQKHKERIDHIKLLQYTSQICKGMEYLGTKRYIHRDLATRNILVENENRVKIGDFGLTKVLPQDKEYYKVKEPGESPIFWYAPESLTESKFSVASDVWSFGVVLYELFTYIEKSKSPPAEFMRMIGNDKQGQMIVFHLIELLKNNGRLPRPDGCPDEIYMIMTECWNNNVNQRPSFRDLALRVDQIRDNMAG

[11] = target: JAK1 (Homo sapiens, UniProt P23458); test: Cell-free kinase activity assay, JAK1
JAK1, sequence (P23458 whole entry): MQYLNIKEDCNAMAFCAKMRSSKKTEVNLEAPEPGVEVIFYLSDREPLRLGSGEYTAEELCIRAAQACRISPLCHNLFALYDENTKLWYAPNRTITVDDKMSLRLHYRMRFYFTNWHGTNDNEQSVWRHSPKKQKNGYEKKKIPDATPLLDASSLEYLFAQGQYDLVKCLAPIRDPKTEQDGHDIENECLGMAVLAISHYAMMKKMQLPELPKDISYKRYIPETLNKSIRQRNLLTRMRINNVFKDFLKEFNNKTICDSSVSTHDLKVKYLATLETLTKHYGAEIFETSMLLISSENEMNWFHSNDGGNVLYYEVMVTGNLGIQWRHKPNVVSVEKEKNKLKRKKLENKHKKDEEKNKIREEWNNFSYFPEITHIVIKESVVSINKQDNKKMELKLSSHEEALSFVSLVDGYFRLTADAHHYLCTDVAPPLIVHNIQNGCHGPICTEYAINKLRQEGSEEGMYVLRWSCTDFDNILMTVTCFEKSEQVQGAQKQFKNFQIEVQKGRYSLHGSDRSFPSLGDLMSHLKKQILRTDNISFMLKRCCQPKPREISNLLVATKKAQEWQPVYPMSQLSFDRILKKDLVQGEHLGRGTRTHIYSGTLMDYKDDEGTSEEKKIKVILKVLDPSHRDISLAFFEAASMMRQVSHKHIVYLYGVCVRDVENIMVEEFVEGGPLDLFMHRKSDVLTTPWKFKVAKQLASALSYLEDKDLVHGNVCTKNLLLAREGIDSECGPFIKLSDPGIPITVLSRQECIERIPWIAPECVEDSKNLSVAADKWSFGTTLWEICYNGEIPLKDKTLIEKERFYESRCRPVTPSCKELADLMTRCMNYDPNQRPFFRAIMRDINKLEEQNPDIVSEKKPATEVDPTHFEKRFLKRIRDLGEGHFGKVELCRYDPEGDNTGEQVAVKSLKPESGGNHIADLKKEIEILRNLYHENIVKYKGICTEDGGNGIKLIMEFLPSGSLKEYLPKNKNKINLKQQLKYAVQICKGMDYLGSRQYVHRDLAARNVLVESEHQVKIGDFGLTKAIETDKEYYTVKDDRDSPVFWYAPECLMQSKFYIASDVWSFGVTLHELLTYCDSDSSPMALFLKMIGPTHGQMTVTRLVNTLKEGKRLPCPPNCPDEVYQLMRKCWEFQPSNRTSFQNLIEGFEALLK

[12] = system: MCP-1 production in influenza virus-infected U937 cells (H3N2); test: cells; type: cell-based, Human
[13] = system: IP-10 production in influenza virus-infected U937 cells (H7N8); test: cells; type: cell-based, Human; conditions: read-out: EC50 IP-10
[14] = system: IL-8 production in influenza virus-infected U937 cells (H3N2); test: cells; type: cell-based, Human
[15] = system: IP-10 production in influenza virus-infected U937 cells (H3N2); test: cells; type: cell-based, Human
[16] = system: U937 cells
[17] = system: IL-8 production in influenza virus-infected U937 cells (H7N8); test: cells; type: cell-based, Human; conditions: read-out: EC50 IL-8
[18] = system: MCP-1 production in influenza virus-infected U937 cells (H7N8); test: cells; type: cell-based, Human; conditions: read-out: EC50 MCP-1
[19] = Homo sapiens, U-937, read-out: EC50 MCP-1
[20] = Homo sapiens, U-937, read-out: EC50 IP-10
[21] = CC50, secondary screen, Supplemental Table 1
[22] = Homo sapiens, U-937, secondary screen, Supplemental Table 1

Which IC50 [1] does the source give for `CC(C)(C)Cn1c(N)nc2ccc(-c3[nH]c(C(C)(C)C)nc3-c3ccc(F)cc3)nc21` [LY2228820] here?
The IC50 was 0.06 µM.

And the EC50 [2, 19]?
Its EC50 is 2.23 µM.

What about the IC50 ([2]; Homo sapiens, U-937, read-out: IC50 MCP-1) of the same molecule?
The IC50 was 2.2 µM.

What about the EC50 [3, 20] of the same molecule?
The EC50 was 3.7 µM.

And the CC50 [4, 21]?
The CC50 was 50 µM.

And the IC50 ([5]; Homo sapiens, U-937)?
The IC50 was 0.005 µM.

What about the EC50 [5, 22] of the same molecule?
Its EC50 is < 0.005 µM.

For `C=CC(=O)N1CCC[C@@H](n2nc(-c3ccc(Oc4ccccc4)cc3)c3c(N)ncnc32)C1` [Ibrutinib (PCI-32765), Ibrutinib], which “protection of mice from lethal influenza infection” value [6] is on record?
The value was “protecting mice from lethal influenza infection”.

What about the CC50 [4, 21] of the same molecule?
Its CC50 is > 100 µM.

And the EC50 [5, 22]?
The EC50 was 1.22 µM.

Which results are given for `O=C(NOC[C@H](O)CO)c1ccc(F)c(F)c1Nc1ccc(I)cc1F` [PD0325901]?
phosphorylation of p38 ([7]; 24 h post-infection, western blot, cellular model): suppress; IC50 ([7]; Homo sapiens, U-937, read-out: IC50 p-p38): 0.01 µM; phosphorylation of STAT1 proteins [8]: inhibit; EC50 ([2]; Homo sapiens, U-937, secondary screen, Supplemental Table 1; read-out: EC50 MCP-1): 0.1 µM; IC50 ([2]; Homo sapiens, U-937; read-out: IC50 MCP-1): < 0.02 µM; secretion of MCP-1 ([2]; different concentrations of PD0325901, 48 h post-infection): inhibited; EC50 ([3]; Homo sapiens, U-937, secondary screen, Supplemental Table 1, read-out: EC50 IP-10): 0.69 µM; secretion of IP-10 ([3]; at high concentrations, 48 h post-infection): inhibit; phosphorylation level of ERK ([9]; 24 h post-infection, western blot): decreased; CC50 [4]: > 100 µM; secretion of IL-8 [5]: inhibited; IC50 ([5]; Homo sapiens, U-937): < 0.02 µM; EC50 [5, 22]: < 0.005 µM

Which results are given for `CC[C@@](C)(Nc1ccnc(-c2c[nH]c3ncccc23)n1)C(=O)NCC(F)(F)F` [Decernotinib]?
EC50 [2, 19]: 0.05 µM; EC50 [3, 20]: 0.1 µM; IC50 ([3]; Homo sapiens, U-937, read-out: IC50 IP-10): 0.1 µM; IC50 [10]: 0.09 µM; JAK2 activity [10]: inhibited; CC50 [4, 21]: 50 µM; IC50 [11]: 0.013 µM; JAK1 activity ([11]; cell-free kinase assay): inhibited; EC50 [5, 22]: 0.02 µM

Which IC50 ([7]; phosphorylation of p38, western blot, Table 4, read-out: IC50 p-p38) does the source give for `Cc1ccc(Nc2ncc3c(n2)N(C)C(=O)N(c2cc(NC(=O)c4cccc(C(F)(F)F)c4)ccc2C)C3)cn1` [GNF-7] here?
The IC50 was 0.01 µM.

What about the EC50 [12] of the same molecule?
Its EC50 is 0.014 µM.

What about the STAT1 phosphorylation levels [8] of the same molecule?
Its STAT1 phosphorylation levels is “significantly reduced”.

What about the EC50 [13] of the same molecule?
Its EC50 is 0.005 µM.

And the EC50 ([2]; U937 cells infected with H1N1; read-out: EC50 MCP-1)?
The EC50 was 0.018 µM.

What about the IC50 ([2]; production of MCP-1 in U937 cells infected with influenza virus; Table 4; read-out: IC50 MCP-1) of the same molecule?
The IC50 was < 0.02 µM.

What about the EC50 ([2]; secondary screen, Supplemental Table 1; read-out: EC50 MCP-1) of the same molecule?
Its EC50 is 0.01 µM.

And the EC50 [14]?
The EC50 was 0.027 µM.

What about the EC50 ([3]; U937 cells infected with H1N1, read-out: EC50 IP-10) of the same molecule?
Its EC50 is 0.071 µM.

And the EC50 ([3]; secondary screen, Supplemental Table 1, read-out: EC50 IP-10)?
Its EC50 is 0.02 µM.

What about the EC50 [15] of the same molecule?
Its EC50 is 0.001 µM.

What about the “phosphorylation level of ERK” value [9] of the same molecule?
Its value is “promoted”.

What about the CC50 [16] of the same molecule?
The CC50 was 13.6 µM.

And the maximum non-toxic concentration [16]?
Its maximum non-toxic concentration is 1 µM.

And the CC50 ([16]; U937 cells, Table 1 section H1N1)?
Its CC50 is 13.6 µM.

What about the CC50 ([16]; U937 cells, Table 1 section H3N2) of the same molecule?
Its CC50 is 13.6 µM.

What about the EC50 [17] of the same molecule?
Its EC50 is 0.014 µM.

What about the EC50 [18] of the same molecule?
The EC50 was 0.109 µM.

What about the IC50 [5] of the same molecule?
The IC50 was < 0.02 µM.

What about the EC50 [5] of the same molecule?
The EC50 was 0.019 µM.

And the EC50 ([5]; secondary screen, Supplemental Table 1)?
Its EC50 is < 0.005 µM.
